Results: ChEMBL document CHEMBL1129270, “Aza-peptide analogs as potent human immunodeficiency virus type-1 protease inhibitors with oral bioavailability” (J Med Chem, 1996)

Assays:
[1] = target: Human immunodeficiency virus type 1 protease (Human immunodeficiency virus 1) (UniProt Q72874); assay: In vivo for antiviral activity (ED90) against HIV-1 protease.; format: organism-based
[2] = Plasma Concentration after 120 min of oral administration to mice; format: ADME, organism-based; settings: mouse
[3] = target: Human immunodeficiency virus type 1 protease (Human immunodeficiency virus 1) (UniProt Q72874); assay: In vivo antiviral activity (IC50) against HIV-1 protease.; format: organism-based
[4] = Plasma Concentration after 90 min of oral administration to mice; format: ADME, organism-based; settings: mouse
[5] = Compound was tested in vivo for antiviral activity (C120/ED50) against HIV Protease.; format: functional
Mus musculus (mouse) = assay: Plasma Concentration after 60 min of oral administration to mice
[6] = Plasma Concentration after 30 min of oral administration to mice; format: ADME, organism-based; settings: mouse

Row | Compound | ED90 [1] [nM] | concentration at 2 h [2] [nM] | ED50 [3] [nM] | concentration at 1.5 h [4] [nM] | C120/ED50 [5] | concentration at 1 h (Mus musculus (mouse)) [nM] | concentration at 0.5 h [6] [nM]
1 | CCOC(=O)NC(C(=O)N[C@@H](Cc1ccccc1)[C@H](O)CN(CC1CCCCC1)NC(=O)C(NC(=O)OCC)C(C)C)C(C)C (stereo not given in full) | 1000 | 8700 | 55 | 7800 | 158 | 6700 | 6700
2 | COCCOCCOC(=O)NC(C(=O)N[C@@H](Cc1ccccc1)[C@H](O)CN(CC1CCCCC1)NC(=O)C(NC(=O)OCCOCCOC)C(C)C)C(C)C (stereo not given in full) | 10000 |  | 41 |  |  |  | 
3 | COC(=O)N[C@H](C(=O)N[C@@H](Cc1ccccc1)[C@H](O)CN(CC1CCCCC1)NC(=O)[C@@H](NC(C)=O)C(C)C)C(C)C | 1000 |  | 300 |  |  |  | 
4 | COC(=O)N[C@H](C(=O)N[C@@H](Cc1ccccc1)C(O)CN(CCC(C)C)NC(=O)[C@@H](NC(=O)OC)C(C)C)C(C)C (stereo not given in full) | 30 | 300 | 2.7 | 400 | 111 | 600 | < 200
5 | COC(=O)NC(C(=O)NN(CC1CCCCC1)C[C@H](O)[C@H](Cc1ccccc1)NC(=O)[C@H](CC(N)=O)NC(=O)c1ccc2ccccc2n1)C(C)C (stereo not given in full) | 100 |  | 18 |  |  |  | 
6 | CCOC(=O)NC(C(=O)N[C@@H](Cc1ccccc1)[C@H](O)CN(CC1CCCCC1)NC(=O)C(NC(=O)OCCOC)C(C)C)C(C)C (stereo not given in full) | 100 | 1500 | 15 | 1000 | 100 | 2200 | 1000
7 | COC(=O)NC(C(=O)NN(CC(C)C)C[C@H](O)[C@H](Cc1ccccc1)NC(=O)[C@H](CC(N)=O)NC(=O)c1ccc2ccccc2n1)C(C)C (stereo not given in full) | 300 |  | 63 |  |  |  | 
8 | COC(=O)N[C@H](C(=O)N[C@@H](Cc1ccccc1)C(O)CN(Cc1ccc(OC)c(OC)c1OC)NC(=O)[C@@H](NC(=O)OC)C(C)C)C(C)C (stereo not given in full) | 100 |  | 28 |  |  |  | 
9 | CCOC(=O)NC(C(=O)N[C@@H](Cc1ccccc1)[C@H](O)CN(CC1CCCCC1)NC(=O)C(NC(=O)OC)C(C)C)C(C)C (stereo not given in full) | 1000 | 1400 | 72 | 1200 | 19 | 400 | 3200
10 | COC(=O)N[C@H](C(=O)N[C@@H](Cc1ccccc1)C(O)CN(Cc1ccc(F)cc1)NC(=O)[C@@H](NC(=O)OC)C(C)C)C(C)C (stereo not given in full) | 1000 |  | 49 |  |  |  | 
11 | COC(=O)N[C@H](C(=O)N[C@@H](Cc1ccccc1)C(O)CN(Cc1cccs1)NC(=O)[C@@H](NC(=O)OC)C(C)C)C(C)C (stereo not given in full) | 100 |  | 17 |  |  |  | 
12 | CCOC(=O)NC(C(=O)NN(CC1CCCCC1)C[C@@H](O)[C@H](Cc1ccccc1)NC(=O)C(NC(=O)OC)C(C)C)C(C)C (stereo not given in full) | 100 | 6000 | 29 | 5800 | 207 | 2200 | 3800
13 | COC(=O)NC(C(=O)NN(Cc1ccc(OC)cc1)C[C@H](O)[C@H](Cc1ccccc1)NC(=O)[C@H](CC(N)=O)NC(=O)c1ccc2ccccc2n1)C(C)C (stereo not given in full) | 1000 |  | 118 |  |  |  | 
14 | COC(=O)N[C@H](C(=O)N[C@@H](Cc1ccccc1)C(O)CN(Cc1ccc(C#N)cc1)NC(=O)[C@@H](NC(=O)OC)C(C)C)C(C)C (stereo not given in full) | 1000 |  | 68 |  |  |  | 
15 | CC(C)C(NC(=O)OCc1ccccc1)C(=O)NN(CC1CCCCC1)C[C@H](O)[C@H](Cc1ccccc1)NC(=O)[C@H](CC(N)=O)NC(=O)c1ccc2ccccc2n1 (stereo not given in full) | 30 | 1100 | 9.8 | 800 | 73 | 200 | 300
